Experimental data as given in PubChem BioAssay AID2060620 (Molecular Pharmacology Branch, DTP, NCI, 2025).

Tested on: 328373-195-R-J1-PDC complex spheroids, viability % test/control
Test: Anticancer human tumor 328373-195-R-J1-PDC patient-derived head and neck squamous carcinoma cell line growth inhibition [CLK]
Settings: for IC50: curve of first compound; for viability, T/C: stronger effect = lower value
In short: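 Patient-derived tumor cells grown as complex spheroids with HUVEC endothelial cells and mesenchymal stem cells, treated with drug combinations. Concentrations descend in half-log steps from near clinical Cmax, or from 10 microM if Cmax unknown.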

[1] = second compound 0.0316 µM, first compound 0.0316 µM
[2] = second compound 0.0316 µM, first compound 0.1 µM
[3] = second compound 0.0316 µM, first compound 0.316 µM
[4] = second compound 0.0316 µM, first compound 1 µM
[5] = second compound 0.1 µM, first compound 0.0316 µM
[6] = second compound 0.1 µM, first compound 0.1 µM
[7] = second compound 0.1 µM, first compound 0.316 µM
[8] = second compound 0.1 µM, first compound 1 µM
[9] = second compound 0.316 µM, first compound 0.0316 µM
[10] = second compound 0.316 µM, first compound 0.1 µM
[11] = second compound 0.316 µM, first compound 0.316 µM
[12] = second compound 0.316 µM, first compound 1 µM
[13] = second compound 1 µM, first compound 0.0316 µM
[14] = second compound 1 µM, first compound 0.1 µM
[15] = second compound 1 µM, first compound 0.316 µM
[16] = second compound 1 µM, first compound 1 µM
[17] = second compound 3.16 µM, first compound 0.0316 µM
[18] = second compound 3.16 µM, first compound 0.1 µM
[19] = second compound 3.16 µM, first compound 0.316 µM
[20] = second compound 3.16 µM, first compound 1 µM
[21] = second compound 10 µM, first compound 0.0316 µM
[22] = second compound 10 µM, first compound 0.1 µM
[23] = second compound 10 µM, first compound 0.316 µM
[24] = second compound 10 µM, first compound 1 µM
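Further: spheroids exposed to the agents for 7 days.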

SMILES: CC(=O)O[C@H]1C(=O)[C@@]2(C)[C@H]([C@H](OC(=O)c3ccccc3)[C@]3(O)C[C@H](OC(=O)[C@H](O)[C@@H](NC(=O)c4ccccc4)c4ccccc4)C(C)=C1C3(C)C)[C@]1(OC(C)=O)CO[C@@H]1C[C@@H]2O + CN1CCN(c2cc(C(=O)Nc3cc4cc(-c5cnn(C)c5)ccc4cn3)ccn2)CC1
- IC50 (second compound 0.0316 µM): < 31.6 nM
- IC50 (second compound 0.1 µM): < 31.6 nM
- IC50 (second compound 0.316 µM): < 31.6 nM
- IC50 (second compound 1 µM): < 31.6 nM
- IC50 (second compound 3.16 µM): < 31.6 nM
- IC50 (second compound 10 µM): < 31.6 nM
- viability, T/C [1]: 7.74%
- viability, T/C [2]: 4.32%
- viability, T/C [3]: 7.3%
- viability, T/C [4]: 5.75%
- viability, T/C (second compound 0.0316 µM, first compound 3.16 µM): 9.83%
- viability, T/C (second compound 0.0316 µM, first compound 10 µM): 12.9%
- viability, T/C [5]: 2.72%
- viability, T/C [6]: 2.97%
- viability, T/C [7]: 8.34%
- viability, T/C [8]: 5.1%
- viability, T/C (second compound 0.1 µM, first compound 3.16 µM): 7.93%
- viability, T/C (second compound 0.1 µM, first compound 10 µM): 9.97%
- viability, T/C [9]: 3.35%
- viability, T/C [10]: 5.31%
- viability, T/C [11]: 5.81%
- viability, T/C [12]: 5.22%
- viability, T/C (second compound 0.316 µM, first compound 3.16 µM): 5.91%
- viability, T/C (second compound 0.316 µM, first compound 10 µM): 10.6%
- viability, T/C [13]: 0.18%
- viability, T/C [14]: 0.12%
- viability, T/C [15]: 0.12%
- viability, T/C [16]: 0.07%
- viability, T/C (second compound 1 µM, first compound 3.16 µM): 0.08%
- viability, T/C (second compound 1 µM, first compound 10 µM): 0.07%
- viability, T/C [17]: 2.71%
- viability, T/C [18]: 0.11%
- viability, T/C [19]: 0.12%
- viability, T/C [20]: 0.08%
- viability, T/C (second compound 3.16 µM, first compound 3.16 µM): 0.76%
- viability, T/C (second compound 3.16 µM, first compound 10 µM): 2.99%
- viability, T/C [21]: 1.85%
- viability, T/C [22]: 1.39%
- viability, T/C [23]: 0.15%
- viability, T/C [24]: 0.17%
- viability, T/C (second compound 10 µM, first compound 3.16 µM): 2.04%
- viability, T/C (second compound 10 µM, first compound 10 µM): 2.05%

SMILES: CCc1c2c(nc3ccc(O)cc13)-c1cc3c(c(=O)n1C2)COC(=O)[C@]3(O)CC + CN1CCN(c2cc(C(=O)Nc3cc4cc(-c5cnn(C)c5)ccc4cn3)ccn2)CC1
- IC50 (second compound 0.0316 µM): < 3.16 nM
- IC50 (second compound 0.1 µM): < 3.16 nM
- IC50 (second compound 0.316 µM): < 3.16 nM
- IC50 (second compound 1 µM): < 3.16 nM
- IC50 (second compound 3.16 µM): < 3.16 nM
- IC50 (second compound 10 µM): < 3.16 nM
- viability, T/C (second compound 0.0316 µM, first compound 0.00316 µM): 12.2%
- viability, T/C (second compound 0.0316 µM, first compound 0.01 µM): 1.41%
- viability, T/C [1]: 2.09%
- viability, T/C [2]: 0.42%
- viability, T/C [3]: 0.89%
- viability, T/C [4]: 2.49%
- viability, T/C (second compound 0.1 µM, first compound 0.00316 µM): 10.9%
- viability, T/C (second compound 0.1 µM, first compound 0.01 µM): 2.12%
- viability, T/C [5]: 2.78%
- viability, T/C [6]: 0.32%
- viability, T/C [7]: 1.24%
- viability, T/C [8]: 0.18%
- viability, T/C (second compound 0.316 µM, first compound 0.00316 µM): 7.1%
- viability, T/C (second compound 0.316 µM, first compound 0.01 µM): 3.19%
- viability, T/C [9]: 1.44%
- viability, T/C [10]: 0.21%
- viability, T/C [11]: 0.41%
- viability, T/C [12]: 0.05%
- viability, T/C (second compound 1 µM, first compound 0.00316 µM): 0.07%
- viability, T/C (second compound 1 µM, first compound 0.01 µM): 1.93%
- viability, T/C [13]: 2.72%
- viability, T/C [14]: 0.03%
- viability, T/C [15]: 0.04%
- viability, T/C [16]: 0.78%
- viability, T/C (second compound 3.16 µM, first compound 0.00316 µM): 0.96%
- viability, T/C (second compound 3.16 µM, first compound 0.01 µM): 0.54%
- viability, T/C [17]: 0.11%
- viability, T/C [18]: 2.41%
- viability, T/C [19]: 2.52%
- viability, T/C [20]: 0.11%
- viability, T/C (second compound 10 µM, first compound 0.00316 µM): 0.51%
- viability, T/C (second compound 10 µM, first compound 0.01 µM): 0.1%
- viability, T/C [21]: 1.56%
- viability, T/C [22]: 0.07%
- viability, T/C [23]: 1.03%
- viability, T/C [24]: 2.56%
